ChEMBL document CHEMBL3616395, “Discovery of 4-arylamido 3-methyl isoxazole derivatives as novel FMS kinase inhibitors” (Eur J Med Chem, 2015)
Activity calls are given as the source filed them.

Assays:
[1] = molecular target: RAC-alpha serine/threonine-protein kinase (Homo sapiens) (UniProt P31749); test: Inhibition of AKT1 (unknown origin) at 10 uM after 40 mins by scintillation counting analysis
[2] = molecular target: Mitogen-activated protein kinase 3 (Homo sapiens) (UniProt P27361); test: Inhibition of ErK1 (unknown origin) at 10 uM after 40 mins by scintillation counting analysis
[3] = molecular target: Receptor-type tyrosine-protein kinase FLT3 (Homo sapiens) (UniProt P36888); test: Inhibition of FLT3 (unknown origin) at 10 uM after 40 mins by scintillation counting analysis
[4] = molecular target: Proto-oncogene tyrosine-protein kinase ROS (Homo sapiens) (UniProt P08922); test: Inhibition of ROS1 (unknown origin) at 10 uM after 40 mins by scintillation counting analysis
[5] = molecular target: Mitogen-activated protein kinase 8 (Homo sapiens) (UniProt P45983); test: Inhibition of JNK1 (unknown origin) at 10 uM after 40 mins by scintillation counting analysis
[6] = molecular target: Tyrosine-protein kinase ITK/TSK (Homo sapiens) (UniProt Q08881); test: Inhibition of ITK (unknown origin) at 10 uM after 40 mins by scintillation counting analysis
[7] = molecular target: Vascular endothelial growth factor receptor 3 (Homo sapiens) (UniProt P35916); test: Inhibition of FLT4 (unknown origin) at 10 uM after 40 mins by scintillation counting analysis
[8] = molecular target: Platelet-derived growth factor receptor alpha (Homo sapiens) (UniProt P16234); test: Inhibition of PDGFRalpha (unknown origin) at 10 uM after 40 mins by scintillation counting analysis
[9] = molecular target: Platelet-derived growth factor receptor beta (Homo sapiens) (UniProt P09619); test: Inhibition of PDGFRbeta (unknown origin) at 10 uM after 40 mins by scintillation counting analysis
[10] = molecular target: Angiopoietin-1 receptor (Homo sapiens) (UniProt Q02763); test: Inhibition of TIE2 (unknown origin) at 10 uM after 40 mins by scintillation counting analysis

Measured: inhibition

Sequence of Receptor-type tyrosine-protein kinase FLT3 (Homo sapiens) (P36888 whole entry): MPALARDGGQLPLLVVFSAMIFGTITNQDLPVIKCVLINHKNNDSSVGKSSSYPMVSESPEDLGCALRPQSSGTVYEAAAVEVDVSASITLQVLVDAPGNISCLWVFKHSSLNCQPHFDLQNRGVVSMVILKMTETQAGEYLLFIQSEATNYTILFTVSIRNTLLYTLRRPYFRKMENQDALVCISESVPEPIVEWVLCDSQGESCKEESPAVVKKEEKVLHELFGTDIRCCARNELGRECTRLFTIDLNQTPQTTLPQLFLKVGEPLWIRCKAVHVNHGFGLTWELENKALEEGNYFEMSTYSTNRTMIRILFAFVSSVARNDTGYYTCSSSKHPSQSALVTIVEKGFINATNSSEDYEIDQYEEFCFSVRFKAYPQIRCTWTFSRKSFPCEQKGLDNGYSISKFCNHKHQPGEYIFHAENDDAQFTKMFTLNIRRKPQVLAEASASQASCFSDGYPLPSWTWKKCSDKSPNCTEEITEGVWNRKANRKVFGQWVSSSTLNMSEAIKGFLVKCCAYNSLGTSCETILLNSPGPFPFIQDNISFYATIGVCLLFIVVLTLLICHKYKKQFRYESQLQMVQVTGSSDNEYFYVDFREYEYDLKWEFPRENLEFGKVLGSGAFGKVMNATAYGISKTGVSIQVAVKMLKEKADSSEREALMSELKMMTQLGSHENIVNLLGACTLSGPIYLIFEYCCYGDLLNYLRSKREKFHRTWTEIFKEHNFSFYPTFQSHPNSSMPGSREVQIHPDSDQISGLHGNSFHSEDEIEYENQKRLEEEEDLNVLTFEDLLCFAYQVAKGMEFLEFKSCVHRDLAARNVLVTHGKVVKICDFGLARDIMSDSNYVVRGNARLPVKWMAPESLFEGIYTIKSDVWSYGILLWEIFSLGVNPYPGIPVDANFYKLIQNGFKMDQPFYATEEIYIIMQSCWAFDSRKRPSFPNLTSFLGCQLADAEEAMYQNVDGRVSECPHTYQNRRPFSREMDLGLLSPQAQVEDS
Sequence of Platelet-derived growth factor receptor beta (Homo sapiens) (P09619 whole entry): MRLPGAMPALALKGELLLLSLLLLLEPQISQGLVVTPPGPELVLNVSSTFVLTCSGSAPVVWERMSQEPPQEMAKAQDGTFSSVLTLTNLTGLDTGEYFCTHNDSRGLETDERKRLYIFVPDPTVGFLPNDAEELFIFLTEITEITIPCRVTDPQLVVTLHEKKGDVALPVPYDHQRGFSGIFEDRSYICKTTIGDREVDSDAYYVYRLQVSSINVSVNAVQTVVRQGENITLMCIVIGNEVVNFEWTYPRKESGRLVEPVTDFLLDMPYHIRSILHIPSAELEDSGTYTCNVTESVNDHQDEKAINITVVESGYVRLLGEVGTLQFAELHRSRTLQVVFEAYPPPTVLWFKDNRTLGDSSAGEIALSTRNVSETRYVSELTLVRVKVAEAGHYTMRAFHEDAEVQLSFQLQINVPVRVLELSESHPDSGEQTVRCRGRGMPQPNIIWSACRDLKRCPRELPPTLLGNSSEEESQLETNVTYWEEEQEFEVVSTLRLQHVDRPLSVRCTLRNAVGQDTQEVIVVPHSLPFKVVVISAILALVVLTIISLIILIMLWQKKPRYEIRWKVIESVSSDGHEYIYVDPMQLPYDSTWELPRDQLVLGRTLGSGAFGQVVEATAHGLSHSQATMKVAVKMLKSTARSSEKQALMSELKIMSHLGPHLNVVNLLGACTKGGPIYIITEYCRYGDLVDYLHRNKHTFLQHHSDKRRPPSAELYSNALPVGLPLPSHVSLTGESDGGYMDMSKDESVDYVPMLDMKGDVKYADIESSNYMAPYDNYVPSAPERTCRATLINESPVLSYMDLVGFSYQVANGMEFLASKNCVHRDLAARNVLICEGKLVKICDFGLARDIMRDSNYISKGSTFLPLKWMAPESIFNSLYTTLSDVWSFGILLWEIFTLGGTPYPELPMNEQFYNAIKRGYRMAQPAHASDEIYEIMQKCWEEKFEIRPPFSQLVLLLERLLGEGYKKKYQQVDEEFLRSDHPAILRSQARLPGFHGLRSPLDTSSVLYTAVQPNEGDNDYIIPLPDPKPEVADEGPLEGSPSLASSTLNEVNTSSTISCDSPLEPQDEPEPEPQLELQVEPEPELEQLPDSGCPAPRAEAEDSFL
Sequence of Angiopoietin-1 receptor (Homo sapiens) (Q02763 whole entry): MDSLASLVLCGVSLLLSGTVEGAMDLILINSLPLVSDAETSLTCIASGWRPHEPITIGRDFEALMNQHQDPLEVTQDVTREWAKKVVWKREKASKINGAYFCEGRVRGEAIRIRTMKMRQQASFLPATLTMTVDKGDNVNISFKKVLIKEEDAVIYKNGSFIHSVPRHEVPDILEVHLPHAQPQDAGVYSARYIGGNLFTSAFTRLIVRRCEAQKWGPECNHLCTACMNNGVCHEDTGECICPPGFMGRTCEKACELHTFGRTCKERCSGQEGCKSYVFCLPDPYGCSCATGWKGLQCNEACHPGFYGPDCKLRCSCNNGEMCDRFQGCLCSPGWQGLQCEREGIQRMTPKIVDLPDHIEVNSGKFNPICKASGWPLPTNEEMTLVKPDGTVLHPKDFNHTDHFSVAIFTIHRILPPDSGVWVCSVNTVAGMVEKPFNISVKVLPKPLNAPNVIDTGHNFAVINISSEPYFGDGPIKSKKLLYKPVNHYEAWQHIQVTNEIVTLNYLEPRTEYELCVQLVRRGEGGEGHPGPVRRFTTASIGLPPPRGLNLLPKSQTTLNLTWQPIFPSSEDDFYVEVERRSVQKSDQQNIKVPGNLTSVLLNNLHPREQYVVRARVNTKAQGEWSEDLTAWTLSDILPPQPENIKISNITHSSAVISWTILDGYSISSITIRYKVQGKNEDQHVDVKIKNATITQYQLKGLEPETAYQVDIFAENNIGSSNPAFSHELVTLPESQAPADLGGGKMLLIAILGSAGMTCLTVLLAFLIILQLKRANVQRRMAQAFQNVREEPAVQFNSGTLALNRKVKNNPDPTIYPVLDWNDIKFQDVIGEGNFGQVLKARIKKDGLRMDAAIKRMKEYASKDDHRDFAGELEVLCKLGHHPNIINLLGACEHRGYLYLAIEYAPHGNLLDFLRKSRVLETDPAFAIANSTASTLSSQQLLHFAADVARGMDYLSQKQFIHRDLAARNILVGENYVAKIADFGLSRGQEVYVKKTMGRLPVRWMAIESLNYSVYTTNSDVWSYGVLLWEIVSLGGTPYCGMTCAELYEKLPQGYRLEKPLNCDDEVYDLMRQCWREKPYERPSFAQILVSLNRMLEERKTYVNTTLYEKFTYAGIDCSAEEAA
Sequence of Mitogen-activated protein kinase 3 (Homo sapiens) (P27361 whole entry): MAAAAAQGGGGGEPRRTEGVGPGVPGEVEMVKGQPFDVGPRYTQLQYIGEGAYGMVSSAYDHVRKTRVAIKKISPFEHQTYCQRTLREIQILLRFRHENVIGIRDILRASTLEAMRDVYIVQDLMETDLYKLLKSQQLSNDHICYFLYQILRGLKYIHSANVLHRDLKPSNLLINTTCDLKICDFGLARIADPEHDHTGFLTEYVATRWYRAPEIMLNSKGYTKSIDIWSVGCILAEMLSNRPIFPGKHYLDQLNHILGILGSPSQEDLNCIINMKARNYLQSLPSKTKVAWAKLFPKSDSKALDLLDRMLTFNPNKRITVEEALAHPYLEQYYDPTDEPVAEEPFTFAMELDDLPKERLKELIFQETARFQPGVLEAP
Sequence of Mitogen-activated protein kinase 8 (Homo sapiens) (P45983 whole entry): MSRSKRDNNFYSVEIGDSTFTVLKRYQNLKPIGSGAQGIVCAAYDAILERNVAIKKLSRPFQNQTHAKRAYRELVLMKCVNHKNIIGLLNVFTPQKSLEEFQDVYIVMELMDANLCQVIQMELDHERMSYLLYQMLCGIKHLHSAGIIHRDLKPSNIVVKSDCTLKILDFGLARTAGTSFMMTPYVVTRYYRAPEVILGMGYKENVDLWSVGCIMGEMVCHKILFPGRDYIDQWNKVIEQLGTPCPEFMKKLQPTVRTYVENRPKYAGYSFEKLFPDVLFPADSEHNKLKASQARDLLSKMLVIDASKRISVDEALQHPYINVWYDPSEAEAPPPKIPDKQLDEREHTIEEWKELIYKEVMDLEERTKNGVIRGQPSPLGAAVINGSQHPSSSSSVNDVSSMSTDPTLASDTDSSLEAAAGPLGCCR
Sequence of Tyrosine-protein kinase ITK/TSK (Homo sapiens) (Q08881 whole entry): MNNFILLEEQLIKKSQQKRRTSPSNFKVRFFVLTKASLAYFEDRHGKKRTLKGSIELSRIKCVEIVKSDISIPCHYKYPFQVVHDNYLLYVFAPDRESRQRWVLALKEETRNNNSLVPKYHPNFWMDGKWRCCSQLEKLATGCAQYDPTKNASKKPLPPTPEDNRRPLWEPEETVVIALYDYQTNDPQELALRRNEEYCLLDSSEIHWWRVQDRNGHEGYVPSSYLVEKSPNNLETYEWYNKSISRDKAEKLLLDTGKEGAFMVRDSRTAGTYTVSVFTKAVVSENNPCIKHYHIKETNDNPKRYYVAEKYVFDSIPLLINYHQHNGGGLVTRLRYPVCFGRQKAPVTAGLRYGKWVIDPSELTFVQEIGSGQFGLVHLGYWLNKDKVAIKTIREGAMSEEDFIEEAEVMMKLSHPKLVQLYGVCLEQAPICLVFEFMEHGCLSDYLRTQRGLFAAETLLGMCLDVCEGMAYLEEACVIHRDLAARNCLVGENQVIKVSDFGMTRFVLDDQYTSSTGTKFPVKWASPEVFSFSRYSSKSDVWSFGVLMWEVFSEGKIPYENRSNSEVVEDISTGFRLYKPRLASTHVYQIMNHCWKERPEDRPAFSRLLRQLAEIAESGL

Cc1ccccc1C(=O)Nc1cnoc1C
inactive: [1] | [2] | [3] | [4] | [5] | [6] | [7] | [8] | [9] | [10]
